Experimental data: patent publication US20110218210A1, “COMPOUNDS FOR TREATING ABNORMAL CELLULAR PROLIFERATION” (priority 2007, published 2011)
Read-outs that look alike come from different tables or passages of the source.

Columns and labels:
[1] = test system: normal hematopoietic stem cells; assay: Effect on normal hematopoietic stem cells (FIG. 6); format: cell-based
leukemic stem cells [2] = assay: Killing of leukemic stem cells (FIG. 6); format: cell-based
[3] = test system: ABM 42 C31 leukemic stem cells; assay: Therapeutic trial: survival of mice transplanted with leukemic stem cells (pre-clinical model of AML); format: in vivo; conditions: 7 daily injections of 250 ul of 10 uM solution, intravenously, from clinical signs (about 15 d post-transplant); FIG. 5
Description: Groups of 3-5 mice are utilized for each of the experimental protocols. Transplantation of tumors is done by injecting 10^3 cells intravenously into cohorts of sub-lethally irradiated (450R)C57/BL6/Rag −/− mice ranging in age from 4-6 weeks. The mice are monitored daily for clinical signs of disease. These clinical signs included externally evident splenomegaly, a hunched posture and reduce mobility, labored breathing, dehydration, scruffy fur and an ascending paralysis in a minority of cases. […] The mice then receive daily injections of the indicated agents for 7 days. Mice are held indefinitely to ascertain rates of survival.
Into cohorts of sublethally irradiated mice are transplanted 10^3 ABM 42 C31 leukemic stem cells. Treatment of the mice when they develop clinical signs of disease (hunched posture, rapid breathing, scruffled fur at approximately 15d post-transplant). Mice receive 7 daily injections of 250 ul XPBS solutions containing 10 uM concentrations of 4-Amino-7-[(2R,3S,4S,5R)-3,4-dihydroxy-5-(hydroxymethyl)oxolan-2-yl]-6-hydrazinylpyrrolo[5,4-d]pyrimidine-5-carboxamide, 2-[(2-chloro-4-nitrophenanthridin-6-yl)amino]ethanol, and 5-(anthracen-1-ylmethylidene)-2-sulfanylidene-1,3diazinane-4,6-dione. After the 7th day the mice are monitored for survival. FIG. 5 illustrates that administration of the compounds delay mortality in a pre-clinical model of AML disease.

[4] = test system: leukemic stem cell clone ABM42 C31; assay: MTS viability assay, murine leukemic stem cell line; format: cell-based; conditions: serial two-fold dilutions starting from 10 μM, 24 h, FIG. 1
Description: (§1) Leukemic stem cell lines and normal hematopoetic stem cell lines are separately maintained in cultures as described above. For viability assays, the cell lines are passed 24-36 hours prior to use in the assay, in order to test for sensitivity to specific drugs with cells in log-phase growth. Cells are plated in 96-well flat bottom plates (Greiner, Switzerland), at a concentration of 10^4 cells for the leukemic stem cell lines and normal hematopoietic stem cell lines, or 10^5 for the primary human fetal cord blood cells. Cells are plated in a final volume of 200 μl containing RPMI-1640 growth medium, supplemented as described above. Cells are either plated in medium alone, or medium containing a drug of interest. All drugs are tested in 11 different concentrations in order to derive sensitivity curves. The individual conditions were set up in triplicate wells, and at least three independent assays are performed to validate a specific observation.
(§2) The cells are cultured with the specific drug concentration for 24 hours at 37° C. in a 5% CO2 atmosphere. After culturing the cells under the experimental conditions for 23 hours, the wells are supplemented with 10 μl of the CellTiter 96 Aqueous Non-radioactive Cell Proliferation MTS reagent (Promega, Madison Wis.), and incubated in a 37° C. incubator (5% CO2) for 60 minutes. All plates are analyzed using a plate reader (Molecular Devices) using a filter set for O.D. 405. All values are used to derive standard errors, and compared among the different independent assays.
(§3) These compounds are screened for the ability to inhibit leukemic stem cell viability but not affect normal hematopoietic stem cells by incubating the compounds with cells using serial two-fold dilutions starting from 10 μM stocks.

[5] = test system: primary unmanipulated fetal cord blood cells; assay: MTS viability assay, primary fetal cord blood cells; format: cell-based, human; conditions: at the drug concentrations tested (two-fold dilutions from 10 μM), 24 h, FIG. 4
Description: as §1
The cells are cultured with the specific drug concentration for 24 hours at 37° C. in a 5% CO2 atmosphere. […] All plates are analyzed using a plate reader (Molecular Devices) using a filter set for O.D. 405. […]

[6] = format: in vivo; conditions: immune deficient mice reconstituted with murine hematopoetic stem cell lines; 7 daily injections of 1 mM concentrations
Description: Immune deficient mice that are reconstituted with the murine hematopoetic stem cell lines are injected with 10,000× the effective in vitro concentration of a drug. Briefly, mice are given 7 daily injections of 1 mM concentrations of one of 4-Amino-7-[(2R,3S,4S,5R)-3,4-dihydroxy-5-(hydroxymethyl)oxolan-2-yl]-6-hydrazinylpyrrolo[5,4-d]pyrimidine-5-carboxamide, 2-[(2-chloro-4-nitrophenanthridin-6-yl)amino]ethanol, and 5-(anthracen-1-ylmethylidene)-2-sulfanylidene-1,3diazinane-4,6-dione. After the 7th day the mice are monitored for overt side-effects and survival.

[7] = test system: normal murine hematopoietic stem cell line "BL/6 BM"; assay: MTS viability assay, normal murine hematopoietic stem cell line; format: cell-based; conditions: serial two-fold dilutions starting from 10 μM, 24 h, FIG. 1
Description: as §1, §2, §3

leukemic stem cells [8] = assay: Flow cytometric analysis of apoptosis induction (7AAD); format: cell-based; conditions: 10 μM; 24 h; versus normal murine hematopoietic stem cell lines; FIG. 2
Description: For analysis of apoptosis in leukemic stem cells or in normal hematopoietic stem cell lines, cells are cultured (in triplicate) with the specific drug concentration for 24 hours at 37° C. in a 5% CO2 atmosphere. Cell suspensions obtained from cultured cells are washed twice in FACS buffer, incubated for 20 minutes with 4 μM 7-aminoactinomycin-D (7AAD, Calbiochem), and washed with FACS buffer. Stained cells are resuspended in PBS and analyzed immediately on a flow cytometer.
4-Amino-7-[(2R,3S,4S,5R)-3,4-dihydroxy-5-(hydroxymethyl)oxolan-2-yl]-6-hydrazinylpyrrolo[5,4-d]pyrimidine-5-carboxamide, 2-[(2-chloro-4-nitrophenanthridin-6-yl)amino]ethanol, and 5-(anthracen-1-ylmethylidene)-2-sulfanylidene-1,3diazinane-4,6-dione preferentially kill murine leukemic stem cell viability vs. normal murine hematopoietic stem cell line. These compounds are screened to determine whether the effect of the compounds on reduced viability was due to inhibiting proliferation, or direct killing through apoptosis. The cells are analyzed by flow cytometric analysis for the exclusion of 7-aminoactinomycin-D (7AAD). At a concentration of 10 μM, cells are incubated in a 5% CO2 atmosphere for 24 h. After two washes in 1×PBS the cells are incubated with 4 μM 7-aminoactinomycin-D (7AAD) for 20 min.

[9] = Bone marrow toxicity in mice (FIG. 17); conditions: compared to mice treated with methotrexate (MTX)
[10] = test system: leukemic cell line (U937); assay: MTS viability assay, human leukemic cell line; format: cell-based; conditions: serial two-fold dilutions beginning with 10 μM, 24 h, FIG. 3
Description: as §1, §2
These compounds are incubated with cells using serial two-fold dilutions beginning with 10 μM.

[11] = mouse, in vivo

Compound | effect on normal hematopoietic stem cells [1] | effect on leukemic stem cells (leukemic stem cells [2]) | survival of mice transplanted with leukemic stem cells [3] | viability of leukemic stem cells [4] | viability of primary unmanipulated fetal cord blood cultures [5] | mortality [6] | viability of normal murine hematopoietic stem cell line [7] | apoptosis induction (7AAD positive/GFP negative) (leukemic stem cells [8]) | bone marrow toxicity [9] | viability of human leukemic cell lines [10] | bone marrow toxicity [11]
CN(Cc1cnc2nc(N)nc(N)c2n1)c1ccc(C(=O)N[C@@H](CCC(=O)O)C(=O)O)cc1 [methotrexate] | killed | killed |  |  |  |  |  |  |  |  | 
O=C1NC(=S)NC(=O)C1=Cc1cccc2cc3ccccc3cc12 [5-(anthracen-1-ylmethylidene)-2-sulfanylidene-1,3diazinane-4,6-dione] |  |  | increase survival | preferentially inhibited viability | no decrease in viability | none of the mice died | but not the normal murine hematopoietic stem cell line | induce apoptosis preferentially in leukemic stem cells | less bone marrow toxicity | preferentially inhibited viability of the leukemic cell lines | 
O=[N+]([O-])c1cc(Cl)cc2c1nc(NCCO)c1ccccc12 [2-[(2-chloro-4-nitrophenanthridin-6-yl)amino]ethanol] |  |  | increase survival | preferentially inhibited viability |  | none of the mice died | but not the normal murine hematopoietic stem cell line | induce apoptosis preferentially in leukemic stem cells |  | preferentially inhibited viability of the leukemic cell lines | less bone marrow toxicity
NNc1c(C(N)=O)c2c(N)ncnc2n1[C@@H]1O[C@H](CO)[C@@H](O)[C@@H]1O [4-amino-7-[(2R,3S,4S,5R)-3,4-dihydroxy-5-(hydroxymethyl)oxolan-2-yl]-6-hydrazinylpyrrolo[5,4-d]pyrimidine-5-carboxamide] |  |  | increase survival | preferentially inhibited viability |  | none of the mice died | but not the normal murine hematopoietic stem cell line | induce apoptosis preferentially in leukemic stem cells | less bone marrow toxicity | preferentially inhibited viability of the leukemic cell lines | 
